Experimental data reported in US10696615B2, “Prenylated hydroxystilbenes” (The University of Sydney, priority 2011, dated 2020).

Key:
[1] = test system: HL-60 (TB); assay: NCI in vitro cancer screen, Leukemia; type: cell-based, human; settings: HL-60 (TB); for GI50 / CC50: Homo sapiens; for CC50: read-out: LC50 (the source's name)
[2] = test system: K-562; assay: NCI in vitro cancer screen, Leukemia; type: cell-based, human; settings: K-562; for GI50 / CC50: Homo sapiens, K562; for CC50: read-out: LC50 (the source's name)
[3] = test system: RPMI-8226; assay: NCI in vitro cancer screen, Leukemia; type: cell-based, human; settings: RPMI-8226; for GI50 / CC50: Homo sapiens; for CC50: read-out: LC50 (the source's name)
[4] = test system: SR; assay: NCI in vitro cancer screen, Leukemia; type: cell-based, human; settings: for GI50 / CC50: Homo sapiens; for CC50: read-out: LC50 (the source's name)
[5] = test system: A549/ATCC; assay: NCI in vitro cancer screen, Non-Small Cell Lung Cancer; type: cell-based, human; settings: for GI50 / CC50: Homo sapiens; for CC50: read-out: LC50 (the source's name)
[6] = test system: EKVX; assay: as above; type: cell-based, human; settings: for GI50 / CC50: Homo sapiens; for CC50: read-out: LC50 (the source's name)
[7] = test system: HOP-62; assay: as above; type: cell-based, human; settings: HOP-62; for GI50 / CC50: Homo sapiens; for CC50: read-out: LC50 (the source's name)
[8] = test system: NCI-H226; assay: as above; type: cell-based, human; settings: NCI-H226; for GI50 / LC50 (50% lethal concentration): Homo sapiens
[9] = test system: NCI-H322M; assay: as above; type: cell-based, human; settings: for GI50 / LC50 (50% lethal concentration): Homo sapiens
[10] = test system: HT29; assay: NCI in vitro cancer screen, Colon Cancer; type: cell-based, human; settings: HT29; for GI50 / CC50: Homo sapiens, HT-29; for CC50: read-out: LC50 (the source's name)
[11] = test system: SW-620; assay: NCI in vitro cancer screen, Colon Cancer; type: cell-based, human; settings: SW-620; for GI50 / CC50: Homo sapiens; for CC50: read-out: LC50 (the source's name)
[12] = test system: SF-268; assay: NCI in vitro cancer screen, CNS Cancer; type: cell-based, human; settings: SF-268; for GI50 / CC50: Homo sapiens; for CC50: read-out: LC50 (the source's name)
[13] = test system: SF-295; assay: NCI in vitro cancer screen, CNS Cancer; type: cell-based, human; settings: SF-295; for GI50 / CC50: Homo sapiens; for CC50: read-out: LC50 (the source's name)
[14] = test system: SF-539; assay: NCI in vitro cancer screen, CNS Cancer; type: cell-based; settings: SF-539; for GI50 / CC50: Homo sapiens; for CC50: read-out: LC50 (the source's name)
[15] = test system: SNB-75; assay: NCI in vitro cancer screen, CNS Cancer; type: cell-based, human; settings: SNB-75; for GI50 / CC50: Homo sapiens; for CC50: read-out: LC50 (the source's name)
[16] = test system: MDA-MB-435; assay: NCI in vitro cancer screen, Melanoma; type: cell-based, human; settings: MDA-MB-435; for GI50 / CC50: Homo sapiens; for CC50: read-out: LC50 (the source's name)
[17] = test system: UACC-257; assay: NCI in vitro cancer screen, Melanoma; type: cell-based, human; settings: UACC-257; for GI50 / CC50: Homo sapiens; for CC50: read-out: LC50 (the source's name)
[18] = test system: IGROV1; assay: NCI in vitro cancer screen, Ovarian Cancer; type: cell-based, human; settings: IGROV1; for GI50 / CC50: Homo sapiens, IGROV-1; for CC50: read-out: LC50 (the source's name)
[19] = test system: OVCAR-3; assay: NCI in vitro cancer screen, Ovarian Cancer; type: cell-based, human; settings: OVCAR-3; for GI50 / CC50: Homo sapiens; for CC50: read-out: LC50 (the source's name)
[20] = test system: 786-0; assay: NCI in vitro cancer screen, Renal Cancer; type: cell-based, human; settings: 786-0; for GI50 / LC50 (50% net cell kill): Homo sapiens
[21] = test system: A498; assay: NCI in vitro cancer screen, Renal Cancer; type: cell-based, human; settings: A498; for GI50 / CC50: Homo sapiens; for CC50: read-out: LC50 (the source's name)
[22] = test system: RXF-393; assay: NCI in vitro cancer screen, Renal Cancer; type: cell-based, human; settings: RXF-393; for GI50 / CC50: Homo sapiens; for CC50: read-out: LC50 (the source's name)
[23] = test system: SN12C; assay: NCI in vitro cancer screen, Renal Cancer; type: cell-based, human; settings: for GI50 / CC50: Homo sapiens; for CC50: read-out: LC50 (the source's name)
[24] = test system: TK-10; assay: NCI in vitro cancer screen, Renal Cancer; type: cell-based, human; settings: TK-10; for GI50 / LC50: Homo sapiens
[25] = test system: UO-31; assay: NCI in vitro cancer screen, Renal Cancer; type: cell-based, human; settings: UO-31; for GI50 / CC50: Homo sapiens; for CC50: read-out: LC50 (the source's name)
[26] = test system: MCF7; assay: NCI in vitro cancer screen, Breast Cancer; type: cell-based, human; settings: MCF7; for GI50 / CC50: Homo sapiens; for CC50: read-out: LC50 (the source's name)
[27] = test system: HS 578T; assay: NCI in vitro cancer screen, Breast Cancer; type: cell-based, human; settings: for GI50 / CC50: Homo sapiens; for CC50: read-out: LC50 (the source's name)
[28] = test system: T-47D; assay: NCI in vitro cancer screen, Breast Cancer; type: cell-based, human; settings: for GI50 / CC50: Homo sapiens, T47D; for CC50: read-out: LC50 (the source's name)
[29] = test system: MDA-MB-468; assay: NCI in vitro cancer screen, Breast Cancer; type: cell-based, human; settings: MDA-MB-468; for GI50 / CC50: Homo sapiens; for CC50: read-out: LC50 (the source's name)

CC(C)=CCOc1cc(O)cc(/C=C/c2ccc(O)c(O)c2)c1 [USYDS4, (E)-3-(3-methyl-2-butenyloxy)-3′,4′,5-trihydroxystilbene]
TGI [1]: 6.04 µM | GI50 [1]: 2.59 µM | CC50 [1]: > 100 µM | GI50 [2]: 2.35 µM | CC50 [2]: > 100 µM | TGI [2]: >100 µM | GI50 [3]: 2.35 µM | CC50 [3]: > 100 µM | TGI [3]: 25.4 µM | TGI [4]: >100 µM | GI50 [4]: 0.95 µM | CC50 [4]: > 100 µM | TGI [5]: 25.6 µM | GI50 [5]: 4.74 µM | CC50 [5]: > 100 µM | TGI [6]: 59.6 µM | GI50 [6]: 9.55 µM | CC50 [6]: > 100 µM | TGI [7]: 26.3 µM | GI50 [7]: 6.49 µM | CC50 [7]: 83.4 µM | GI50 [8]: 5.14 µM | LC50 (50% lethal concentration) [8]: 78 µM | TGI [8]: 23.1 µM | TGI [9]: 54.7 µM | GI50 [9]: 12.8 µM | LC50 (50% lethal concentration) [9]: > 100 µM | TGI [10]: 32.5 µM | GI50 [10]: 16.3 µM | CC50 [10]: 64.7 µM | GI50 [11]: 2.97 µM | CC50 [11]: 46.5 µM | TGI [11]: 16.6 µM | GI50 [12]: 3.89 µM | CC50 [12]: > 100 µM | TGI [12]: 23.2 µM | GI50 [13]: 7.29 µM | CC50 [13]: 70.9 µM | TGI [13]: 24.3 µM | GI50 [14]: 3.45 µM | CC50 [14]: 97.5 µM | TGI [14]: 22.3 µM | GI50 [15]: 1.77 µM | CC50 [15]: 48.3 µM | TGI [15]: 9.11 µM | GI50 [16]: 0.36 µM | CC50 [16]: > 100 µM | TGI [16]: 21.6 µM | GI50 [17]: 5.44 µM | CC50 [17]: 48.6 µM | TGI [17]: 19.4 µM | GI50 [18]: 3.74 µM | CC50 [18]: > 100 µM | TGI [18]: 44.8 µM | GI50 [19]: 3.98 µM | CC50 [19]: 44.9 µM | TGI [19]: 15.0 µM | TGI [20]: 20.5 µM | GI50 [20]: 4.41 µM | LC50 (50% net cell kill) [20]: > 100 µM | TGI [21]: 23.5 µM | GI50 [21]: 9.07 µM | CC50 [21]: 55.2 µM | GI50 [22]: 2.17 µM | CC50 [22]: 46 µM | TGI [22]: 15.3 µM | TGI [23]: 20.0 µM | GI50 [23]: 3.94 µM | CC50 [23]: 74.1 µM | GI50 [24]: 3.87 µM | LC50 [24]: > 100 µM | TGI [24]: 9.66 µM | GI50 [25]: 3.31 µM | CC50 [25]: 66.4 µM | TGI [25]: 20.7 µM | GI50 [26]: 2.57 µM | CC50 [26]: 51.1 µM | TGI [26]: 18.2 µM | TGI [27]: 7.11 µM | GI50 [27]: 1 µM | CC50 [27]: > 100 µM | TGI [28]: 6.93 µM | GI50 [28]: 2.13 µM | CC50 [28]: > 100 µM | GI50 [29]: 2.53 µM | CC50 [29]: 55.1 µM | TGI [29]: 9.51 µM

COc1cc(/C=C/c2cc(O)cc(OCC=C(C)C)c2)ccc1O [USYDS2, (E)-3-(3-methyl-2-butenyloxy)-4′,5-dihydroxy-3′-methoxystilbene]
TGI [1]: 9.77 µM | GI50 [1]: 1.34 µM | CC50 [1]: > 100 µM | GI50 [2]: 0.48 µM | CC50 [2]: > 100 µM | TGI [2]: >100 µM | GI50 [3]: 4.32 µM | CC50 [3]: > 100 µM | TGI [3]: 52.8 µM | TGI [4]: >100 µM | GI50 [4]: 0.54 µM | CC50 [4]: > 100 µM | TGI [5]: 13.0 µM | GI50 [5]: 3.28 µM | CC50 [5]: 42.1 µM | TGI [6]: 25.2 µM | GI50 [6]: 9.04 µM | CC50 [6]: 66.4 µM | TGI [7]: 18.5 µM | GI50 [7]: 4.44 µM | CC50 [7]: 43.4 µM | GI50 [8]: 5.43 µM | LC50 (50% lethal concentration) [8]: 46.4 µM | TGI [8]: 19.1 µM | TGI [9]: 22.7 µM | GI50 [9]: 9.64 µM | LC50 (50% lethal concentration) [9]: 52.3 µM | TGI [10]: 32.2 µM | GI50 [10]: 17.4 µM | CC50 [10]: 59.6 µM | GI50 [11]: 0.53 µM | CC50 [11]: 40.7 µM | TGI [11]: 14.0 µM | GI50 [12]: 4.5 µM | CC50 [12]: 51.6 µM | TGI [12]: 19.2 µM | GI50 [13]: 3.94 µM | CC50 [13]: 49.2 µM | TGI [13]: 14.7 µM | GI50 [14]: 1.92 µM | CC50 [14]: 50.2 µM | TGI [14]: 13.8 µM | GI50 [15]: 2.14 µM | CC50 [15]: 55.8 µM | TGI [15]: 10.3 µM | GI50 [16]: 0.34 µM | CC50 [16]: 41.3 µM | TGI [16]: 11.0 µM | GI50 [17]: 7.89 µM | CC50 [17]: 46 µM | TGI [17]: 20.6 µM | GI50 [18]: 5.84 µM | CC50 [18]: > 100 µM | TGI [18]: 46.7 µM | GI50 [19]: 3.02 µM | CC50 [19]: 36.1 µM | TGI [19]: 10.7 µM | TGI [20]: 15.9 µM | GI50 [20]: 3.55 µM | LC50 (50% net cell kill) [20]: 98.8 µM | TGI [21]: 23.8 µM | GI50 [21]: 10.3 µM | CC50 [21]: 55.2 µM | GI50 [22]: 1.35 µM | CC50 [22]: 23.6 µM | TGI [22]: 5.46 µM | TGI [23]: 18.8 µM | GI50 [23]: 4.02 µM | CC50 [23]: 60.2 µM | GI50 [24]: 4.69 µM | LC50 [24]: 40.1 µM | TGI [24]: 14.3 µM | GI50 [25]: 2.6 µM | CC50 [25]: 48.9 µM | TGI [25]: 16.9 µM | GI50 [26]: 1.24 µM | CC50 [26]: 41 µM | TGI [26]: 15.0 µM | TGI [27]: 10.3 µM | GI50 [27]: 1.28 µM | CC50 [27]: > 100 µM | TGI [28]: 33.6 µM | GI50 [28]: 5.66 µM | CC50 [28]: > 100 µM | GI50 [29]: 2.72 µM | CC50 [29]: 36.8 µM | TGI [29]: 9.41 µM
